Measurements reported in article PMC12506092, “The MarR family transcription factor SlyA senses iron and respiratory status in enteric bacteria” (mBio, 2025).
pKd: −log10 of the molar value.

Experiments:
SlyA [1] = target: T1, SlyA (Salmonella enterica, UniProt P40676); experiment: ITC with purified SlyA at […]°C; supported by 1H, […]-HSQC NMR; type: binding
SlyA [2] = target: T1, SlyA; experiment: ITC with purified SlyA; supported by NMR; type: binding

T1 sequence (P40676 whole entry): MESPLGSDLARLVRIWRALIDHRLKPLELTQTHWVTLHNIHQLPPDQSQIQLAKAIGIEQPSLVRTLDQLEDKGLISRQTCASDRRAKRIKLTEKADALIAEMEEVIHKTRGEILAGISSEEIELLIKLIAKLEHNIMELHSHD

| Compound | pKd (SlyA [1]) | pKd (SlyA [2]) |
| --- | --- | --- |
| O=C(O)c1cccc(O)c1O [2,3-dihydroxybenzoate] | ~4.24 | – |
| O=C(O)c1ccc(O)cc1 [4-hydroxybenzoate] | ~4.00 | – |
| O=C(O)c1ccccc1O [salicylate] | – | 4.44 |
